# According to US12031087B2, “Oxygenated solvents for improved production of oil and gas” (Board of Regents, The University of Texas System, priority 2019, dated 2024):
# Assays:
# [1] = Coreflooding of fractured cores with 3pRB or pure 3p slug and material balance (Example 3)
# Procedure: Experimental Procedure for Coreflooding. Four Texas cream limestone cores were prepared for coreflooding experiments, having a diameter of 0.0254 m and a length of 0.229 m. […] The porosities, permeabilities and water and oil saturations were measured for all cores. […] The system includes two accumulators for oil and RB, a core holder, a manual pump to maintain the overburden pressure, a pressure gauge, a differential pressure gauge, fluid collectors, and an oven. […] Two Teflon strips of 0.001 m in width and 0.229 m in length were placed inside the fracture to keep an aperture of the fracture. The core halves were put together with the Teflon strips in place, and wrapped with a heat-shrinkable Teflon tube. Finally, the core was placed horizontally inside the core holder with the fracture vertically-oriented. FIG. 27 presents a schematic of the setup for the coreflooding experiments. […] After placing a fractured core in the core holder, the oven temperature was set to reservoir temperature (347 K). […] Fracture permeability was measured using a flow rate of 100 cm^3/hr. […] This range was calculated from available data of fracture conductivity, fracture width, and matrix permeability for shale plays. […] The fracture permeability was then calculated from the fracture aperture by the following equation: kf=b^2/12. […] Then, the produced oil for Δt is expressed as -VP2=([…]). […]
# [2] = Coreflooding of fractured cores, vertical (Example 2)
# Procedure: Experimental Procedure for Coreflooding. […] The Indiana limestone cores have the common dimensions with a diameter of 0.0254 m and a length of 0.127 m. The cores were saturated with RB first and then oil, during which the core properties were measured, such as porosity, permeability, and water and oil saturations.
# It includes an accumulator for crude oil, a pump, a Hassler-type core holder, a hydraulic manual pump to maintain the overburden pressure, a differential pressure gauge, cylinders, and an oven. After a core was placed in the core holder, oil was injected into the cores at 100 cm^3/h and 347 K until no water production was observed.
# An artificial fracture was created along the longitudinal axis using an electric saw for each core (FIG. 20). By following the procedure of Mejia, Teflon spacers with 0.001 m in width and 0.127 m in length were placed along two edges of the fracture to maintain a fracture aperture. Then, the core halves were carefully put together with the Teflon spacers in the fracture, wrapped with a Teflon tube, and placed inside a vertically oriented coreholder.
# FIG. 21 provides a schematic of the experimental setup for coreflooding. It consists of accumulators for crude oil, RB, and chemical solution (3-pentanone or surfactant), a pump, a Hassler-type core holder, a hydraulic manual pump to maintain the overburden pressure, a differential pressure gauge, cylinders, and an oven. […] After a fractured core was placed in the coreholder, the oven temperature was increased to reservoir temperature (347 K). Then, the core was flooded with crude oil to remove any gas inside the fracture and measure the fracture permeability using the flow rate of 900 cm^3/h. The overburden pressure was adjusted so that all cores used in this research had similar fracture apertures and fracture permeabilities.
# Fracture permeabilities were calculated. The equation for flow between parallel plates b=(3πdke)^1/3 was used to estimate a fracture aperture, where b is the fracture aperture, d is the core diameter, and ke is the effective oil permeability of the fractured core. […] Af and Am are cross-sectional areas of the fracture and matrix, respectively. kf and km are permeabilities of the fracture and matrix, respectively.
# The initial RB stage was at 6 cm^3/h for 1.5 pore volumes injected (PVI), then at 0.05 cm^3/h for 0.3-0.4 PVI, and at 6 cm^3/h until there was no oil production. After that, a chemical slug (3-pentanone or surfactant) was injected at 0.6 cm^3/h for 1.6 PVI. Finally, the chase RB was injected at 0.6 cm^3/h. […] However, it was terminated after 1.2 PVI of the chase RB for core 1 because of operational constraints.
# The coreflood effluent was collected in plastic graduating cylinders at room temperature. To correct the oil recovery factor for 3-pentanone solubility in oil, the 3-pentanone concentration in recovered oil was measured by the proton nuclear magnetic resonance (H NMR) method for the chemical slug and chase RB flooding periods for core 1.
smiles,measurement,setting,value
CCC(=O)CC [3-pentanone],"incremental oil recovery, chase RB after 3p slug","[1]; core #3 (Swi=0), after 0.36 PVI",1.1 % OOIP
same,"incremental oil recovery, chase RB after 3p slug","[1]; core #4 (Swi=0.28), after 1.97 PVI",3.7 % OOIP
same,"incremental oil recovery factor, chase RB flooding stage","[2]; 1.2 PVI chase RB (terminated), core 1, 347 K",8.4%
same,"incremental oil recovery factor, chemical slug stage","[2]; 1.6 PVI slug after first RB flood, 1.1 wt % 3-pentanone in RB (core 1) or 1.0 wt % 2-EH-4PO-15EO in RB (core 2), 347 K",30.9%
same,total improved oil recovery,"[2]; chemical slug + chase RB stages (1.2 PVI chase core 1; 7.0 PVI chase core 2), 347 K",39.3%
